{"source": "patent US20040186131A1", "about": "“Method of preventing or treating atherosclerosis or restenosis” (priority 2002, published 2004)", "origin": "cited, not measured here", "system": "CMV infection of rats", "conditions": "DHPG prophylaxis"}
{"smiles": "Nc1nc(O)c2ncn(COC(CO)CO)c2n1", "note": "[Ganciclovir]", "values": [{"measurement": "prevention of atherosclerosis resulting from CMV infection", "result": "prevent atherosclerosis"}]}
